Results as given in the supplement of paper PMC11451515.

What was measured:
Details in all cases: 48 h
SEM cells [1] = experiment: AUC of viability dose-response curve (% viability x log10 dose units); higher = less sensitive
In short: (§1)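 Leukemia cells adapted to each medium (500 or 1000 cells/well, 1536-well plates) were exposed to library compounds in DMSO for 48 h at 37°C at 11 threefold doses, 47 μM to 0.79 nM. Luminescence by CellTiter-Glo One was normalised per plate to DMSO and cell-free wells, then fitted with a four-parameter log-logistic curve on log10 dose. Curves above full viability were scaled and quality-control failures removed before area under the curve was integrated by trapezoidal rule.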

P12-Ichikawa [2] = experiment: as above
In short: as §1

NOMO1 [3] = experiment: as above
In short: as §1

SEM cells [4] = experiment: cell viability relative to DMSO control; higher = less cytotoxic
In short: (§2)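 Viability values are per-plate percentages of DMSO wells, with background from cell-free wells. Library compounds in DMSO were pin-dosed, in an 11-point threefold series from 47 μM to 0.79 nM, onto NOMO1 or SEM (500 cells/well) or P12-Ichikawa (1000 cells/well) leukemia cells in 1536-well plates (5 μl). Those cells had been adapted for at least four passages in each medium, and CellTiter-Glo One luminescence was read after 48 h at 37°C.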

P12-Ichikawa [5] = experiment: as above
In short: as §2

NOMO1 [6] = experiment: as above
In short: as §2

[7] = RPMI 5 mM glucose + 10% dialyzed FBS
[8] = HPLM + 10% dialyzed FBS, 0.000781 µM
[9] = HPLM + 10% dialyzed FBS, 0.00234 µM
[10] = HPLM + 10% dialyzed FBS, 0.00702 µM
[11] = HPLM + 10% dialyzed FBS, 0.0211 µM
[12] = HPLM + 10% dialyzed FBS, 0.0632 µM
[13] = HPLM + 10% dialyzed FBS, 0.19 µM
[14] = HPLM + 10% dialyzed FBS, 0.569 µM
[15] = HPLM + 10% dialyzed FBS, 1.71 µM
[16] = HPLM + 10% dialyzed FBS, 5.12 µM
[17] = HPLM + 10% dialyzed FBS, 15.4 µM
[18] = HPLM + 10% dialyzed FBS, 46.1 µM
[19] = RPMI 5 mM glucose + 10% FBS, 0.000781 µM
[20] = RPMI 5 mM glucose + 10% FBS, 0.00234 µM
[21] = RPMI 5 mM glucose + 10% FBS, 0.00702 µM
[22] = RPMI 5 mM glucose + 10% FBS, 0.0211 µM
[23] = RPMI 5 mM glucose + 10% FBS, 0.0632 µM
[24] = RPMI 5 mM glucose + 10% FBS, 0.19 µM
[25] = RPMI 5 mM glucose + 10% FBS, 0.569 µM
[26] = RPMI 5 mM glucose + 10% FBS, 1.71 µM
[27] = RPMI 5 mM glucose + 10% FBS, 5.12 µM
[28] = RPMI 5 mM glucose + 10% FBS, 15.4 µM
[29] = RPMI 5 mM glucose + 10% FBS, 46.1 µM
[30] = RPMI 5 mM glucose + 10% dialyzed FBS, 0.000781 µM
[31] = RPMI 5 mM glucose + 10% dialyzed FBS, 0.00234 µM
[32] = RPMI 5 mM glucose + 10% dialyzed FBS, 0.00702 µM
[33] = RPMI 5 mM glucose + 10% dialyzed FBS, 0.0211 µM
[34] = RPMI 5 mM glucose + 10% dialyzed FBS, 0.0632 µM
[35] = RPMI 5 mM glucose + 10% dialyzed FBS, 0.19 µM
[36] = RPMI 5 mM glucose + 10% dialyzed FBS, 0.569 µM
[37] = RPMI 5 mM glucose + 10% dialyzed FBS, 1.71 µM
[38] = RPMI 5 mM glucose + 10% dialyzed FBS, 5.12 µM
[39] = RPMI 5 mM glucose + 10% dialyzed FBS, 15.4 µM
[40] = RPMI 5 mM glucose + 10% dialyzed FBS, 46.1 µM

COc1cc([C@@H]2c3cc4c(cc3[C@H](O)[C@H]3COC(=O)[C@@H]23)OCO4)cc(OC)c1OC
AUC of viability dose-response curve (SEM cells [1]; HPLM + 10% dialyzed FBS): 266
AUC of viability dose-response curve (SEM cells [1]; RPMI 5 mM glucose + 10% FBS): 280
AUC of viability dose-response curve (SEM cells [1]; [7]): 249
AUC of viability dose-response curve (P12-Ichikawa [2]; HPLM + 10% dialyzed FBS): 271
AUC of viability dose-response curve (P12-Ichikawa [2]; RPMI 5 mM glucose + 10% FBS): 279
AUC of viability dose-response curve (P12-Ichikawa [2]; [7]): 291
AUC of viability dose-response curve (NOMO1 [3]; HPLM + 10% dialyzed FBS): 304
AUC of viability dose-response curve (NOMO1 [3]; RPMI 5 mM glucose + 10% FBS): 280
AUC of viability dose-response curve (NOMO1 [3]; [7]): 292
cell viability (SEM cells [4]; [8]): 83.1%
cell viability (SEM cells [4]; [9]): 82.7%
cell viability (SEM cells [4]; [10]): 95.3%
cell viability (SEM cells [4]; [11]): 101%
cell viability (SEM cells [4]; [12]): 86.7%
cell viability (SEM cells [4]; [13]): 69.5%
cell viability (SEM cells [4]; [14]): 30.2%
cell viability (SEM cells [4]; [15]): 19.1%
cell viability (SEM cells [4]; [16]): 18.8%
cell viability (SEM cells [4]; [17]): 13.2%
cell viability (SEM cells [4]; [18]): 11.6%
cell viability (SEM cells [4]; [19]): 101%
cell viability (SEM cells [4]; [20]): 97.2%
cell viability (SEM cells [4]; [21]): 104%
cell viability (SEM cells [4]; [22]): 98.3%
cell viability (SEM cells [4]; [23]): 93.5%
cell viability (SEM cells [4]; [24]): 80.7%
cell viability (SEM cells [4]; [25]): 23.2%
cell viability (SEM cells [4]; [26]): 12.1%
cell viability (SEM cells [4]; [27]): 12.2%
cell viability (SEM cells [4]; [28]): 13.5%
cell viability (SEM cells [4]; [29]): 6.13%
cell viability (SEM cells [4]; [30]): 75.4%
cell viability (SEM cells [4]; [31]): 76%
cell viability (SEM cells [4]; [32]): 99.9%
cell viability (SEM cells [4]; [33]): 86.5%
cell viability (SEM cells [4]; [34]): 81.2%
cell viability (SEM cells [4]; [35]): 63%
cell viability (SEM cells [4]; [36]): 29.2%
cell viability (SEM cells [4]; [37]): 16.8%
cell viability (SEM cells [4]; [38]): 17.9%
cell viability (SEM cells [4]; [39]): 16.9%
cell viability (SEM cells [4]; [40]): 8.73%
cell viability (P12-Ichikawa [5]; [8]): 84.1%
cell viability (P12-Ichikawa [5]; [9]): 93.9%
cell viability (P12-Ichikawa [5]; [10]): 95.1%
cell viability (P12-Ichikawa [5]; [11]): 104%
cell viability (P12-Ichikawa [5]; [12]): 100%
cell viability (P12-Ichikawa [5]; [13]): 77.6%
cell viability (P12-Ichikawa [5]; [14]): 30.8%
cell viability (P12-Ichikawa [5]; [15]): 14.3%
cell viability (P12-Ichikawa [5]; [16]): 8.67%
cell viability (P12-Ichikawa [5]; [17]): 5.39%
cell viability (P12-Ichikawa [5]; [18]): 4.89%
cell viability (P12-Ichikawa [5]; [19]): 94.5%
cell viability (P12-Ichikawa [5]; [20]): 95.3%
cell viability (P12-Ichikawa [5]; [21]): 96.5%
cell viability (P12-Ichikawa [5]; [22]): 95.7%
cell viability (P12-Ichikawa [5]; [23]): 98.7%
cell viability (P12-Ichikawa [5]; [24]): 83.2%
cell viability (P12-Ichikawa [5]; [25]): 34.1%
cell viability (P12-Ichikawa [5]; [26]): 20.9%
cell viability (P12-Ichikawa [5]; [27]): 8.85%
cell viability (P12-Ichikawa [5]; [28]): 5.8%
cell viability (P12-Ichikawa [5]; [29]): 4.88%
cell viability (P12-Ichikawa [5]; [30]): 86.9%
cell viability (P12-Ichikawa [5]; [31]): 95.1%
cell viability (P12-Ichikawa [5]; [32]): 101%
cell viability (P12-Ichikawa [5]; [33]): 94.3%
cell viability (P12-Ichikawa [5]; [34]): 97.6%
cell viability (P12-Ichikawa [5]; [35]): 91.2%
cell viability (P12-Ichikawa [5]; [36]): 43.9%
cell viability (P12-Ichikawa [5]; [37]): 22.7%
cell viability (P12-Ichikawa [5]; [38]): 15%
cell viability (P12-Ichikawa [5]; [39]): 10.4%
cell viability (P12-Ichikawa [5]; [40]): 5.7%
cell viability (NOMO1 [6]; [8]): 89.1%
cell viability (NOMO1 [6]; [9]): 102%
cell viability (NOMO1 [6]; [10]): 93.4%
cell viability (NOMO1 [6]; [11]): 105%
cell viability (NOMO1 [6]; [12]): 91.6%
cell viability (NOMO1 [6]; [13]): 76.8%
cell viability (NOMO1 [6]; [14]): 32.5%
cell viability (NOMO1 [6]; [15]): 26.3%
cell viability (NOMO1 [6]; [16]): 33.8%
cell viability (NOMO1 [6]; [17]): 23.9%
cell viability (NOMO1 [6]; [18]): 25.2%
cell viability (NOMO1 [6]; [19]): 84.2%
cell viability (NOMO1 [6]; [20]): 87.9%
cell viability (NOMO1 [6]; [21]): 86.5%
cell viability (NOMO1 [6]; [22]): 99.2%
cell viability (NOMO1 [6]; [23]): 92.7%
cell viability (NOMO1 [6]; [24]): 85.7%
cell viability (NOMO1 [6]; [25]): 39.9%
cell viability (NOMO1 [6]; [26]): 12.5%
cell viability (NOMO1 [6]; [27]): 19.3%
cell viability (NOMO1 [6]; [28]): 16.6%
cell viability (NOMO1 [6]; [29]): 16%
cell viability (NOMO1 [6]; [30]): 92%
cell viability (NOMO1 [6]; [31]): 81.5%
cell viability (NOMO1 [6]; [32]): 92.9%
cell viability (NOMO1 [6]; [33]): 90%
cell viability (NOMO1 [6]; [34]): 93.6%
cell viability (NOMO1 [6]; [35]): 91.3%
cell viability (NOMO1 [6]; [36]): 47.7%
cell viability (NOMO1 [6]; [37]): 20%
cell viability (NOMO1 [6]; [38]): 19.4%
cell viability (NOMO1 [6]; [39]): 20.2%
cell viability (NOMO1 [6]; [40]): 17.5%
